Measurements published in ChEMBL document CHEMBL4177573 (Bioorg Med Chem, 2017).

Key:
Mus musculus [1] = test: Anorectic activity in C57BL/6J mouse assessed as inhibition of food intake at 0.03 mg/kg/day, sc for 3 days dosed as continuous administration by infusion using osmotic pump; format: functional; conditions: 72 h
[2] = target: T1, Neuropeptide Y receptor type 2 (Homo sapiens, UniProt P49146); test: Agonist activity at human neuropeptide Y2 receptor expressed in CHO cell membranes assessed as stimulation of [35S]GTPgammaS binding incubated for 120 mins by liquid scintillation counting method; format: functional
T1 sequence (P49146 whole entry): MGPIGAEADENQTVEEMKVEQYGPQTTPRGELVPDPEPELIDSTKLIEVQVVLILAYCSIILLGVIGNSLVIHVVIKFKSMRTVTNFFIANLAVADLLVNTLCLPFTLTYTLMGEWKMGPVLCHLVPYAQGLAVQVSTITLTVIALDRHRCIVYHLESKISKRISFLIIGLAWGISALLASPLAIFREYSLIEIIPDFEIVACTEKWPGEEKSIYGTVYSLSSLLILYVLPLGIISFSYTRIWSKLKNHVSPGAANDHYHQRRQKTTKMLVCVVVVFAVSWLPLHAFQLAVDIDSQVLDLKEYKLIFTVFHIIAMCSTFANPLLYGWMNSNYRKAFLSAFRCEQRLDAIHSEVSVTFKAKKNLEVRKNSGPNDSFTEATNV

[3] = target: T1, Neuropeptide Y receptor type 2; test: Displacement of [125I]-PYY from human neuropeptide Y2 receptor expressed in CHO cell membranes incubated for 60 mins by TopCount based method
Mus musculus [4] = test: Anorectic activity in C57BL/6J mouse assessed as inhibition of food intake at 0.1 mg/kg/day, sc for 3 days dosed as continuous administration by infusion using osmotic pump; format: functional; conditions: 72 h
Mus musculus [5] = test: Anorectic activity in C57BL/6J mouse assessed as inhibition of food intake at 0.3 mg/kg/day, sc dosed as […] and measured after 12 hrs; format: functional
Mus musculus [6] = test: Anorectic activity in C57BL/6J mouse assessed as inhibition of food intake at 0.3 mg/kg/day, sc dosed as […] and measured after 24 hrs; format: functional

Row | SMILES | inhibition in vivo at 0.03 mg/kg/day (Mus musculus [1]) | EC50 [2] | IC50 [3] | inhibition in vivo at 0.1 mg/kg/day (Mus musculus [4]) | inhibition in vivo at 0.3 mg/kg/day (Mus musculus [5]) | inhibition in vivo at 0.3 mg/kg/day (Mus musculus [6])
1 | CC[C@@](C)(NC(=O)[C@H](CCCCN)NC(=O)[C@H](CC(N)=O)NC(=O)C(C)(C)NC(=O)[C@H](CC1CCCCC1)NC(=O)[C@H](Cc1ccncc1)NC(=O)[C@H](CCCNC(=N)N)NC(=O)[C@H]1CCCN1C(=O)[C@H](CO)NC(C)=O)C(=O)N[C@H](C(=O)N[C@@H](CCCNC(=N)N)C(=O)N[C@@H](CCC(N)=O)C(=O)N[C@@H](CCCNC(=N)N)C(=O)N[C@@H](CC1CCCCC1)C(N)=O)[C@@H](C)O | 34% | 0.11 nM | 0.27 nM | 86% | – | –
2 | CC[C@](C)(NC(=O)[C@H](CO)NC(C)=O)C(=O)N[C@@H](CCCNC(=N)N)C(=O)N[C@@H](Cc1cnc[nH]1)C(=O)N[C@@H](CC1CCCCC1)C(=O)N[C@@H](CC1CCCCC1)C(=O)N[C@@H](CC(N)=O)C(=O)N[C@@H](CC(C)C)C(=O)NC(C)(C)C(=O)N[C@H](C(=O)N[C@@H](CCCNC(=N)N)C(=O)N[C@@H](CCC(N)=O)C(=O)N[C@@H](CCCNC(=N)N)C(=O)N[C@@H](CC1CCCCC1)C(N)=O)[C@@H](C)O | – | 0.35 nM | 1.8 nM | – | – | –
3 | CC[C@@](C)(NC(=O)[C@H](CC(C)C)NC(=O)[C@H](CC(N)=O)NC(=O)[C@H](CC1CCCCC1)NC(=O)[C@H](CC1CCCCC1)NC(=O)[C@H](Cc1cnc[nH]1)NC(=O)[C@H](CCCNC(=N)N)NC(=O)[C@H]1CCCN1C(=O)[C@H](CO)NC(C)=O)C(=O)N[C@H](C(=O)N[C@@H](CCCNC(=N)N)C(=O)N[C@@H](CCC(N)=O)C(=O)N[C@@H](CCCNC(=N)N)C(=O)N[C@@H](CC1CCCCC1)C(N)=O)[C@@H](C)O | – | 0.17 nM | 0.67 nM | – | – | –
4 | CC[C@](C)(NC(=O)[C@H](CC1CCCCC1)NC(=O)[C@H](Cc1ccncc1)NC(=O)[C@](C)(CC)NC(=O)[C@H]1CCCN1C(=O)[C@H](CO)NC(C)=O)C(=O)N[C@@H](CC(N)=O)C(=O)N[C@@H](CCCCN)C(=O)NC(C)(C)C(=O)N[C@H](C(=O)N[C@@H](CCCNC(=N)N)C(=O)N[C@@H](CCC(N)=O)C(=O)N[C@@H](CCCNC(=N)N)C(=O)N[C@@H](CC1CCCCC1)C(N)=O)[C@@H](C)O | 36% | 0.16 nM | 0.57 nM | – | 23% | 16%
5 | CC[C@@](C)(NC(=O)[C@H](CO)NC(C)=O)C(=O)N[C@@H](CCCNC(=N)N)C(=O)N[C@@H](Cc1cnc[nH]1)C(=O)N[C@@H](CC1CCCCC1)C(=O)N[C@@H](CC1CCCCC1)C(=O)N[C@@H](CC(N)=O)C(=O)N[C@@H](CC(C)C)C(=O)NC(C)(C)C(=O)N[C@H](C(=O)N[C@@H](CCCNC(=N)N)C(=O)N[C@@H](CCC(N)=O)C(=O)N[C@@H](CCCNC(=N)N)C(=O)N[C@@H](CC1CCCCC1)C(N)=O)[C@@H](C)O | – | 0.28 nM | 2.4 nM | – | – | –
6 | CC[C@@](C)(NC(=O)[C@H](CO)NC(C)=O)C(=O)N[C@@H](CCCNC(=N)N)C(=O)N[C@@H](Cc1ccncc1)C(=O)N[C@@H](CC1CCCCC1)C(=O)NC(C)(C)C(=O)N[C@@H](CC(N)=O)C(=O)N[C@@H](CCCCN)C(=O)NC(C)(C)C(=O)N[C@H](C(=O)N[C@@H](CCCNC(=N)N)C(=O)N[C@@H](CCC(N)=O)C(=O)N[C@@H](CCCNC(=N)N)C(=O)N[C@@H](CC1CCCCC1)C(N)=O)[C@@H](C)O | 25% | 0.11 nM | 0.3 nM | 64% | – | –
7 | CC[C@](C)(NC(=O)[C@H]1C[C@H](O)CN1C(=O)[C@H](CO)NC(=O)c1c[nH]cn1)C(=O)N[C@@H](Cc1ccncc1)C(=O)N[C@@H](CC1CCCCC1)C(=O)NC(C)(C)C(=O)N[C@@H](CC(N)=O)C(=O)N[C@@H](CCCCN)C(=O)NC(C)(C)C(=O)N[C@H](C(=O)N[C@@H](CCCNC(=N)N)C(=O)N[C@@H](CCC(N)=O)C(=O)N[C@@H](CCCNC(=N)N)C(=O)N[C@@H](CC1CCCCC1)C(N)=O)[C@@H](C)O | – | 0.17 nM | 0.91 nM | – | – | –
8 | CC[C@](C)(NC(=O)[C@H]1C[C@H](O)CN1C(=O)[C@H](CO)NC(C)=O)C(=O)N[C@@H](Cc1ccncc1)C(=O)N[C@@H](CC1CCCCC1)C(=O)NC(C)(C)C(=O)N[C@@H](CC(N)=O)C(=O)N[C@@H](CCCCN)C(=O)NC(C)(C)C(=O)N[C@H](C(=O)N[C@@H](CCCNC(=N)N)C(=O)N[C@@H](CCC(N)=O)C(=O)N[C@@H](CCCNC(=N)N)C(=O)N[C@@H](CC1CCCCC1)C(N)=O)[C@@H](C)O | 45% | 0.21 nM | 0.78 nM | – | – | –
9 | CC[C@](C)(NC(=O)[C@H](CC(C)C)NC(=O)[C@H](CC(N)=O)NC(=O)[C@H](CC1CCCCC1)NC(=O)[C@H](CC1CCCCC1)NC(=O)[C@H](Cc1cnc[nH]1)NC(=O)[C@H](CCCNC(=N)N)NC(=O)[C@H]1CCCN1C(=O)[C@H](CO)NC(C)=O)C(=O)N[C@H](C(=O)N[C@@H](CCCNC(=N)N)C(=O)N[C@@H](CCC(N)=O)C(=O)N[C@@H](CCCNC(=N)N)C(=O)N[C@@H](CC1CCCCC1)C(N)=O)[C@@H](C)O | – | 0.41 nM | 3.7 nM | – | – | –
10 | CC[C@](C)(NC(=O)[C@H](CC1CCCCC1)NC(=O)[C@H](Cc1cnc[nH]1)NC(=O)[C@H](CCCNC(=N)N)NC(=O)[C@H]1CCCN1C(=O)[C@H](CO)NC(C)=O)C(=O)N[C@@H](CC(N)=O)C(=O)N[C@@H](CC(C)C)C(=O)NC(C)(C)C(=O)N[C@H](C(=O)N[C@@H](CCCNC(=N)N)C(=O)N[C@@H](CCC(N)=O)C(=O)N[C@@H](CCCNC(=N)N)C(=O)N[C@@H](CC1CCCCC1)C(N)=O)[C@@H](C)O | – | 0.18 nM | 0.45 nM | – | – | –
11 | CC(C)C[C@H](NC(=O)[C@H](CC(N)=O)NC(=O)[C@H](CC1CCCCC1)NC(=O)[C@H](CC1CCCCC1)NC(=O)[C@H](Cc1cnc[nH]1)NC(=O)[C@H](CCCNC(=N)N)NC(=O)[C@H]1CCCN1C(=O)[C@H](CO)NC(=O)c1c[nH]cn1)C(=O)NC(C)(C)C(=O)N[C@H](C(=O)N[C@@H](CCCNC(=N)N)C(=O)N[C@@H](CCC(N)=O)C(=O)N[C@@H](CCCNC(=N)N)C(=O)N[C@@H](CC1CCCCC1)C(N)=O)[C@@H](C)O | – | 0.18 nM | 0.51 nM | – | – | –
12 | CC[C@](C)(NC(=O)[C@H]1C[C@H](O)CN1C(=O)[C@H](CO)NC(C)=O)C(=O)N[C@@H](Cc1ccncc1)C(=O)N[C@@H](CC1CCCCC1)C(=O)N[C@@H](CC(C)(C)C)C(=O)N[C@@H](CC(N)=O)C(=O)N[C@@H](CCCCN)C(=O)NC(C)(C)C(=O)N[C@H](C(=O)N[C@@H](CCCNC(=N)N)C(=O)N[C@@H](CCC(N)=O)C(=O)N[C@@H](CCCNC(=N)N)C(=O)N[C@@H](CC1CCCCC1)C(N)=O)[C@@H](C)O | 27% | 0.13 nM | 0.58 nM | – | 4% | 8%
13 | CC(C)C[C@H](NC(=O)[C@H](CC(N)=O)NC(=O)[C@H](CC1CCCCC1)NC(=O)[C@H](CC1CCCCC1)NC(=O)[C@H](Cc1cnc[nH]1)NC(=O)[C@H](CCCNC(=N)N)NC(=O)[C@H]1CCCN1C(=O)[C@H](CO)NC(=O)CO)C(=O)NC(C)(C)C(=O)N[C@H](C(=O)N[C@@H](CCCNC(=N)N)C(=O)N[C@@H](CCC(N)=O)C(=O)N[C@@H](CCCNC(=N)N)C(=O)N[C@@H](CC1CCCCC1)C(N)=O)[C@@H](C)O | – | 0.59 nM | 1.2 nM | – | – | –
14 | CC(=O)N[C@@H](CO)C(=O)N1CCC[C@@H]1C(=O)NC(C)(C)C(=O)N[C@@H](Cc1ccncc1)C(=O)N[C@@H](CC1CCCCC1)C(=O)NC(C)(C)C(=O)N[C@@H](CC(N)=O)C(=O)N[C@@H](CCCCN)C(=O)NC(C)(C)C(=O)N[C@H](C(=O)N[C@@H](CCCNC(=N)N)C(=O)N[C@@H](CCC(N)=O)C(=O)N[C@@H](CCCNC(=N)N)C(=O)N[C@@H](CC1CCCCC1)C(N)=O)[C@@H](C)O | – | 0.21 nM | 4.5 nM | 50% | – | –
15 | CC[C@](C)(NC(=O)[C@H](CC1CCCCC1)NC(=O)[C@H](Cc1ccncc1)NC(=O)[C@](C)(CC)NC(=O)[C@H]1C[C@H](O)CN1C(=O)[C@H](CO)NC(=O)c1c[nH]cn1)C(=O)N[C@@H](CC(N)=O)C(=O)N[C@@H](CCCCN)C(=O)NC(C)(C)C(=O)N[C@H](C(=O)N[C@@H](CCCNC(=N)N)C(=O)N[C@@H](CCC(N)=O)C(=O)N[C@@H](CCCNC(=N)N)C(=O)N[C@@H](CC1CCCCC1)C(N)=O)[C@@H](C)O | 49% | 0.13 nM | 0.44 nM | – | – | –
16 | CC[C@](C)(NC(=O)[C@H]1CCCN1C(=O)[C@H](CO)NC(C)=O)C(=O)N[C@@H](Cc1ccncc1)C(=O)N[C@@H](CC1CCCCC1)C(=O)N[C@@H](CC(C)(C)C)C(=O)N[C@@H](CC(N)=O)C(=O)N[C@@H](CCCCN)C(=O)NC(C)(C)C(=O)N[C@H](C(=O)N[C@@H](CCCNC(=N)N)C(=O)N[C@@H](CCC(N)=O)C(=O)N[C@@H](CCCNC(=N)N)C(=O)N[C@@H](CC1CCCCC1)C(N)=O)[C@@H](C)O | 52% | 0.2 nM | 0.4 nM | – | 12% | 1%
17 | CC[C@@](C)(NC(=O)[C@H](CC1CCCCC1)NC(=O)[C@H](Cc1cnc[nH]1)NC(=O)[C@H](CCCNC(=N)N)NC(=O)[C@H]1CCCN1C(=O)[C@H](CO)NC(C)=O)C(=O)N[C@@H](CC(N)=O)C(=O)N[C@@H](CC(C)C)C(=O)NC(C)(C)C(=O)N[C@H](C(=O)N[C@@H](CCCNC(=N)N)C(=O)N[C@@H](CCC(N)=O)C(=O)N[C@@H](CCCNC(=N)N)C(=O)N[C@@H](CC1CCCCC1)C(N)=O)[C@@H](C)O | – | 0.5 nM | 3.3 nM | – | – | –
